Results taken from ChEMBL document CHEMBL1152842, “Synthesis, Raman, FT-IR, NMR spectroscopic data and antimicrobial activity of mixed aza-oxo-thia macrocyclic compounds” (2009).
Converted amounts (≈) assume the structure as drawn.

Legend:
Type in all cases: functional
[1] = system: Kluyveromyces marxianus; experiment: Antifungal activity against Kluyveromyces fragilis NRRL 2415 after 72 hrs by disk diffusion method
[2] = system: Rhodotorula mucilaginosa; experiment: Antifungal activity against Rhodotorula rubra DSM 70403 after 72 hrs by disk diffusion method
[3] = system: Hanseniaspora guilliermondii; experiment: Antifungal activity against Hanseniaspora guilliermondii DSM 3432 after 72 hrs by disk diffusion method
[4] = system: Debaryomyces hansenii; experiment: Antifungal activity against Debaryomyces hansenii DSM 70238 after 72 hrs by disk diffusion method
[5] = system: Candida albicans; experiment: Antifungal activity against Candida albicans ATCC 10231 after 72 hrs by disk diffusion method
[6] = system: Escherichia coli; experiment: Antibacterial activity against Escherichia coli ATCC 11230 after 24 hrs by twofold serial dilution method
[7] = system: Staphylococcus aureus; experiment: Antibacterial activity against Staphylococcus aureus ATCC 6538 after 24 hrs by twofold serial dilution method
[8] = system: Klebsiella pneumoniae; experiment: Antibacterial activity against Klebsiella pneumoniae UC57 after 24 hrs by twofold serial dilution method
[9] = system: Pseudomonas aeruginosa; experiment: Antibacterial activity against Pseudomonas aeruginosa ATCC 27853 after 24 hrs by twofold serial dilution method
[10] = system: Proteus vulgaris; experiment: Antibacterial activity against Proteus vulgaris ATCC 8427 after 24 hrs by twofold serial dilution method
[11] = system: Bacillus cereus; experiment: Antibacterial activity against Bacillus cereus ATCC 7064 after 24 hrs by twofold serial dilution method
[12] = system: Mycolicibacterium smegmatis; experiment: Antibacterial activity against Mycobacterium smegmatis CCM 2067 after 24 hrs by twofold serial dilution method
[13] = system: Listeria monocytogenes; experiment: Antibacterial activity against Listeria monocytogenes ATCC 15313 after 24 hrs by twofold serial dilution method
[14] = system: Micrococcus luteus; experiment: Antibacterial activity against Micrococcus luteus La 2971 after 24 hrs by twofold serial dilution method
[15] = system: Candida albicans; experiment: Antifungal activity against Candida albicans ATCC 10231 after 48 hrs by twofold serial dilution method
[16] = system: Kluyveromyces marxianus; experiment: Antifungal activity against Kluyveromyces fragilis NRRL 2415 after 48 hrs by twofold serial dilution method
[17] = system: Rhodotorula mucilaginosa; experiment: Antifungal activity against Rhodotorula rubra DSM 70403 after 48 hrs by twofold serial dilution method
[18] = system: Hanseniaspora guilliermondii; experiment: Antifungal activity against Hanseniaspora guilliermondii DSM 3432 after 48 hrs by twofold serial dilution method
[19] = system: Debaryomyces hansenii; experiment: Antifungal activity against Debaryomyces hansenii DSM 70238 after 48 hrs by twofold serial dilution method
[20] = system: Escherichia coli; experiment: Antibacterial activity against Escherichia coli ATCC 11230 after 24 hrs by disk diffusion method
[21] = system: Staphylococcus aureus; experiment: Antibacterial activity against Staphylococcus aureus ATCC 6538 after 24 hrs by disk diffusion method
[22] = system: Klebsiella pneumoniae; experiment: Antibacterial activity against Klebsiella pneumoniae UC57 after 24 hrs by disk diffusion method
[23] = system: Pseudomonas aeruginosa; experiment: Antibacterial activity against Pseudomonas aeruginosa ATCC 27853 after 24 hrs by disk diffusion method
[24] = system: Proteus vulgaris; experiment: Antibacterial activity against Proteus vulgaris ATCC 8427 after 24 hrs by disk diffusion method
[25] = system: Bacillus cereus; experiment: Antibacterial activity against Bacillus cereus ATCC 7064 after 24 hrs by disk diffusion method
[26] = system: Mycolicibacterium smegmatis; experiment: Antibacterial activity against Mycobacterium smegmatis CCM 2067 after 24 hrs by disk diffusion method
[27] = system: Listeria monocytogenes; experiment: Antibacterial activity against Listeria monocytogenes ATCC 15313 after 24 hrs by disk diffusion method
[28] = system: Micrococcus luteus; experiment: Antibacterial activity against Micrococcus luteus La 2971 after 24 hrs by disk diffusion method
[29] = system: Escherichia coli; experiment: Antibacterial activity against Escherichia coli ATCC 11230 at 1 ug after 24 hrs by disk diffusion method; details: ATCC 11230, 24 h, read-out: IZ
[30] = system: Staphylococcus aureus; experiment: Antibacterial activity against Staphylococcus aureus ATCC 6538 at 1 ug after 24 hrs by disk diffusion method; details: ATCC 6538, 24 h, read-out: IZ
[31] = system: Klebsiella pneumoniae; experiment: Antibacterial activity against Klebsiella pneumoniae UC57 at 1 ug after 24 hrs by disk diffusion method; details: read-out: IZ
[32] = system: Pseudomonas aeruginosa; experiment: Antibacterial activity against Pseudomonas aeruginosa ATCC 27853 at 1 ug after 24 hrs by disk diffusion method; details: ATCC 27853, 24 h, read-out: IZ
[33] = system: Proteus vulgaris; experiment: Antibacterial activity against Proteus vulgaris ATCC 8427 at 1 ug after 24 hrs by disk diffusion method; details: ATCC 8427, 24 h, read-out: IZ
[34] = system: Bacillus cereus; experiment: Antibacterial activity against Bacillus cereus ATCC 7064 at 1 ug after 24 hrs by disk diffusion method; details: ATCC 7064, 24 h, read-out: IZ
[35] = system: Mycolicibacterium smegmatis; experiment: Antibacterial activity against Mycobacterium smegmatis CCM 2067 at 1 ug after 24 hrs by disk diffusion method; details: CCM 2067, 24 h, read-out: IZ
[36] = system: Listeria monocytogenes; experiment: Antibacterial activity against Listeria monocytogenes ATCC 15313 at 1 ug after 24 hrs by disk diffusion method; details: ATCC 15313, 24 h, read-out: IZ
[37] = system: Micrococcus luteus; experiment: Antibacterial activity against Micrococcus luteus La 2971 at 1 ug after 24 hrs by disk diffusion method; details: read-out: IZ
[38] = system: Kluyveromyces marxianus; experiment: Antifungal activity against Kluyveromyces fragilis NRRL 2415 at 1 ug after 72 hrs by disk diffusion method
[39] = system: Rhodotorula mucilaginosa; experiment: Antifungal activity against Rhodotorula rubra DSM 70403 at 1 ug after 72 hrs by disk diffusion method
[40] = system: Hanseniaspora guilliermondii; experiment: Antifungal activity against Hanseniaspora guilliermondii DSM 3432 at 1 ug after 72 hrs by disk diffusion method
[41] = system: Debaryomyces hansenii; experiment: Antifungal activity against Debaryomyces hansenii DSM 70238 at 1 ug after 72 hrs by disk diffusion method

Compound: O=C1CSCC(=O)Nc2cccc(n2)NC(=O)CSCC(=O)Nc2cccc(n2)N1
- inhibition zone (IZ) [1]: 20 mm
- inhibition zone (IZ) [2]: 15 mm
- inhibition zone (IZ) [3]: 20 mm
- inhibition zone (IZ) [4]: 18 mm
- inhibition zone (IZ) [5]: 17 mm
- MIC ([6]; ATCC 11230, 24 h): 25 µg/mL (≈ 56 µM)
- MIC ([7]; ATCC 6538, 24 h): 12.5 µg/mL (≈ 28 µM)
- MIC [8]: 6.25 µg/mL (≈ 14 µM)
- MIC ([9]; ATCC 27853, 24 h): 6.25 µg/mL (≈ 14 µM)
- MIC ([10]; ATCC 8427, 24 h): 25 µg/mL (≈ 56 µM)
- MIC ([11]; ATCC 7064, 24 h): 12.5 µg/mL (≈ 28 µM)
- MIC ([12]; CCM 2067, 24 h): 25 µg/mL (≈ 56 µM)
- MIC ([13]; ATCC 15313, 24 h): 12.5 µg/mL (≈ 28 µM)
- MIC [14]: 12.5 µg/mL (≈ 28 µM)
- MIC ([15]; ATCC 10231, 48 h): 6.25 µg/mL (≈ 14 µM)
- MIC ([16]; NRRL 2415, 48 h): 3.12 µg/mL (≈ 7 µM)
- MIC ([17]; DSM 70403, 48 h): 6.25 µg/mL (≈ 14 µM)
- MIC ([18]; DSM 3432, 48 h): 3.12 µg/mL (≈ 7 µM)
- MIC ([19]; DSM 70238, 48 h): 3.12 µg/mL (≈ 7 µM)
- inhibition zone (IZ) [20]: 10 mm
- inhibition zone (IZ) [21]: 14 mm
- inhibition zone (IZ) [22]: 15 mm
- inhibition zone (IZ) [23]: 16 mm
- inhibition zone (IZ) [24]: 11 mm
- inhibition zone (IZ) [25]: 12 mm
- inhibition zone (IZ) [26]: 10 mm
- inhibition zone (IZ) [27]: 12 mm
- inhibition zone (IZ) [28]: 12 mm

Compound: O=C1CCSSCCC(=O)Nc2cccc(n2)NC(=O)CCSSCCC(=O)Nc2cccc(n2)N1
- inhibition zone (IZ) [1]: 22 mm
- inhibition zone (IZ) [2]: 22 mm
- inhibition zone (IZ) [3]: 22 mm
- inhibition zone (IZ) [4]: 22 mm
- inhibition zone (IZ) [5]: 22 mm
- MIC ([6]; ATCC 11230, 24 h): 6.25 µg/mL (≈ 11 µM)
- MIC ([7]; ATCC 6538, 24 h): 6.25 µg/mL (≈ 11 µM)
- MIC [8]: 6.25 µg/mL (≈ 11 µM)
- MIC ([9]; ATCC 27853, 24 h): 6.25 µg/mL (≈ 11 µM)
- MIC ([10]; ATCC 8427, 24 h): 25 µg/mL (≈ 44.1 µM)
- MIC ([11]; ATCC 7064, 24 h): 12.5 µg/mL (≈ 22.1 µM)
- MIC ([12]; CCM 2067, 24 h): 25 µg/mL (≈ 44.1 µM)
- MIC ([13]; ATCC 15313, 24 h): 12.5 µg/mL (≈ 22.1 µM)
- MIC [14]: 12.5 µg/mL (≈ 22.1 µM)
- MIC ([15]; ATCC 10231, 48 h): 1.56 µg/mL (≈ 2.75 µM)
- MIC ([16]; NRRL 2415, 48 h): 1.56 µg/mL (≈ 2.75 µM)
- MIC ([17]; DSM 70403, 48 h): 1.56 µg/mL (≈ 2.75 µM)
- MIC ([18]; DSM 3432, 48 h): 1.56 µg/mL (≈ 2.75 µM)
- MIC ([19]; DSM 70238, 48 h): 1.56 µg/mL (≈ 2.75 µM)
- inhibition zone (IZ) [20]: 16 mm
- inhibition zone (IZ) [21]: 15 mm
- inhibition zone (IZ) [22]: 17 mm
- inhibition zone (IZ) [23]: 17 mm
- inhibition zone (IZ) [24]: 11 mm
- inhibition zone (IZ) [25]: 15 mm
- inhibition zone (IZ) [26]: 10 mm
- inhibition zone (IZ) [27]: 15 mm
- inhibition zone (IZ) [28]: 15 mm

Compound: CC1(C)S[C@@H]2[C@H](NC(=O)[C@H](N)c3ccccc3)C(=O)N2[C@H]1C(=O)O [AMPICILLIN]
- zone of inhibition at 1 µg/disc [29]: 12 mm
- zone of inhibition at 1 µg/disc [30]: 16 mm
- zone of inhibition at 1 µg/disc [31]: 14 mm
- zone of inhibition at 1 µg/disc [32]: 12 mm
- zone of inhibition at 1 µg/disc [33]: 32 mm
- zone of inhibition at 1 µg/disc [34]: 16 mm
- zone of inhibition at 1 µg/disc [35]: 21 mm
- zone of inhibition at 1 µg/disc [36]: 12 mm
- zone of inhibition at 1 µg/disc [37]: 10 mm

Compound: CO/N=C(\C(=O)N[C@@H]1C(=O)N2C(C(=O)O)=C(COC(C)=O)CS[C@H]12)c1csc(N)n1 [CEFOTAXIME]
- zone of inhibition at 1 µg/disc [29]: 10 mm
- zone of inhibition at 1 µg/disc [30]: 12 mm
- zone of inhibition at 1 µg/disc [31]: 13 mm
- zone of inhibition at 1 µg/disc [32]: 14 mm
- zone of inhibition at 1 µg/disc [33]: 32 mm
- zone of inhibition at 1 µg/disc [34]: 18 mm
- zone of inhibition at 1 µg/disc [35]: 11 mm
- zone of inhibition at 1 µg/disc [36]: 16 mm
- zone of inhibition at 1 µg/disc [37]: 54 mm

Compound: CN[C@H](CC(C)C)C(=O)N[C@H]1C(=O)N[C@@H](CC(N)=O)C(=O)N[C@H]2C(=O)N[C@H]3C(=O)N[C@H](C(=O)N[C@H](C(=O)O)c4cc(O)cc(O)c4-c4cc3ccc4O)[C@H](O)c3ccc(c(Cl)c3)Oc3cc2cc(c3O[C@@H]2O[C@H](CO)[C@@H](O)[C@H](O)[C@H]2O[C@H]2C[C@](C)(N)[C@H](O)[C@H](C)O2)Oc2ccc(cc2Cl)[C@H]1O [VANCOMYCIN]
- zone of inhibition at 1 µg/disc [29]: 22 mm
- zone of inhibition at 1 µg/disc [30]: 13 mm
- zone of inhibition at 1 µg/disc [31]: 22 mm
- zone of inhibition at 1 µg/disc [32]: 18 mm
- zone of inhibition at 1 µg/disc [33]: 34 mm
- zone of inhibition at 1 µg/disc [34]: 20 mm
- zone of inhibition at 1 µg/disc [35]: 20 mm
- zone of inhibition at 1 µg/disc [36]: 26 mm
- zone of inhibition at 1 µg/disc [37]: 10 mm

Compound: GENTAMICIN
- MIC [6]: 6.25 µg/mL
- MIC [7]: 25 µg/mL
- MIC [8]: 6.25 µg/mL
- MIC [9]: 6.25 µg/mL
- MIC [10]: 25 µg/mL
- MIC [11]: 6.25 µg/mL
- MIC [12]: 12.5 µg/mL
- MIC [13]: 12.5 µg/mL
- MIC [14]: 6.25 µg/mL

Compound: NYSTATIN
- inhibition zone (IZ) [38]: 18 mm
- inhibition zone (IZ) [39]: 20 mm
- inhibition zone (IZ) [40]: 21 mm
- inhibition zone (IZ) [41]: 16 mm
- MIC [15]: 6.25 µg/mL
- MIC [16]: 6.25 µg/mL
- MIC [17]: 3.12 µg/mL
- MIC [18]: 3.12 µg/mL
- MIC [19]: 12.5 µg/mL
